From US20240018470A1, “METHOD OF MANIPULATING PLURIPOTENCY IN CELLS” (YALE UNIVERSITY, priority 2022, published 2024)
No end group written: not given here.

How the values were obtained:
[1] = tested on: animal pole cells (prospective ectoderm); assay: Intracellular Vm recordings in animal pole cells; format: in vivo, Xenopus tropicalis; conditions: high K^+ and ½ sodium replacement with choline; stage 9 animal pole
Source text: For recordings, devitellinized, stage 10 kcnh6 or control MO injected embryos were mounted into non-toxic clay with their animal pole exposed and covered with 1/9×MR. To investigate the resting potential, animal pole cells were impaled with a high-impedance (˜70 Me), sharp microelectrode filled with 3 M KCl for intracellular recordings. The recordings were made using an Axon 200B amplifier and digitized using a Digidata 1320 digitizer. Jclamp software for Windows was used in current clamp mode. All electrodes were zeroed just before entry into the cells.
For the series of intracellular recordings in high K^+ and choline treated embryos, stage 8-9 embryos were impaled similarly with an electrode of […]. These recordings were made using a HEKA EPC10 amplifier. The present study used HEKA PatchMaster v2x67 software for Windows. […]
In experiments where embryos were evaluated for phenotypes and scored (gastrulation, left-right patterning, in situ hybridizations) the present study carried out three to five biological replicates and Fisher's exact test to evaluate statistical significance. […] For the calcium transient analyses, data was collected from three to five embryos in each experiment in three independent experiments, and statistical analyses on GCaMP/mCherry fluorescence intensity as well as Ca^2+ transient area were performed using student's t-test. […]

[2] = tested on: hESCs; assay: hESC pluripotency marker immunofluorescence; format: cell-based, human
Protocol: hESCs were grown in mTeSR1 ([…] Technologies) in tissue culture dishes coated with Matrigel (Corning; 1:200 in DMEM/F12) and kept at 37° C., 5% CO2. The cell lines used were ESI017 (ESIBIO) and H9.
(§1) Cells were dissociated with accutase and seeded onto 8 well imaging slides (ibidi 80826) at a density of 4-6×10^4/cm^2. Cells were seeded and maintained in Rock-inhibitor Y27672 (MCE; 10 μM) to increase survival and the uniformity of response. Treatments with 1 mM BaCl2 or 10 or 25 nM Ergtoxin or 100 nM rapamycin were initiated 4 hours after seeding. Differentiation was initiated 24 hours after seeding where indicated. To initiate differentiation, the media was replenished with/without BaCl2 or Ergtoxin and treated with the indicated growth factors or small molecules. Cells were incubated for the indicated times without media change before fixation.
Cells were fixed for 30 min in 4% paraformaldehyde, rinsed twice with DPBS (without Ca^2+ and Mg^2+, denoted DPBS^−/−), and blocked for 30 min at room temperature. The blocking solution contained 3% donkey serum and 0.1% Triton X-100 in 1×DPBS^−/−. After blocking, the cells were incubated with primary antibodies at room temperature for 2 hours. Antibodies and concentrations are listed below. Cells were washed three times with DPBST (1×DPBS^−/− with Tween 20) and incubated with secondary antibodies (AlexaFluor 488 A21206, AlexaFluor 555 A31570 and A21432, and AlexaFluor 647 A31571, Thermo Fisher; 1:500) and DAPI for 30 min at room temperature. After secondary antibody incubation, samples were washed in DPBST and then DPBS at room temperature.
(§2) Images were acquired using a 20×, NA 0.75 objective on an Olympus IX83 inverted epifluorescence microscope or an Olympus/Andor spinning disk confocal microscope. Cell segmentation was performed using ilastik software. This segmentation was cleaned (to remove debris and to separate merged cells) and mean nuclear protein intensities as well as standard errors were quantified using a custom MATLAB code. Nuclear intensities were normalized by DAPI to correct for intensity variation due to optics. […]

[3] = tested on: hESCs; assay: hESC pluripotency marker qPCR; format: cell-based, human; conditions: 25 nM; OCT4 and SOX2 by day 2, all three genes on day 5
Protocol: hESCs were grown in mTeSR1 (STEMCELL Technologies) in tissue culture dishes coated with Matrigel (Corning; 1:200 in DMEM/F12) and kept at 37° C., 5% CO2. The cell lines used were ESI017 (ESIBIO) and H9. Cells were routinely passaged using dispase (STEMCELL Technologies) and tested for mycoplasma contamination and found negative. For rapamycin experiments, cells were grown in MEF-conditioned HUESM media supplemented with 20 ng/ml bFGF with or without 100 nM rapamycin, which the present study found to increase the survival of rapamycin treated cells compared to cells grown in mTeSR1.
For qPCR, hESCs were grown with or without ErgToxin (25 nM) for the indicated times. RNA collection and DNase treatment were performed using the RNAqueous®-Micro Total RNA Isolation Kit (AM1931) and cDNA was synthesized with the SuperScript Vilo cDNA Synthesis Kit (Fisher Scientific 11754-050). qPCR measurements were collected using SYBR Green reagent (LifeTech-4367659) on a Step OnePlus instrument (Applied Biosciences). Data were normalized using the housekeeping gene GAPDH. Primers for qPCR were: OCT4: 5′-[…]-3′ (SEQ ID NO:12), 5′-[…]-3′ (SEQ ID NO:13), SOX2: 5′-[…]-3′ (SEQ ID NO:14), 5′-[…]-3′ (SEQ ID NO:15), NANOG: 5′-[…]-3′ (SEQ ID NO:16), 5′-[…]-3′ (SEQ ID NO:17), GAPDH: 5′-[…]-3′ (SEQ ID NO:18), 5′-[…]-3′ (SEQ ID NO:19).

[4] = tested on: hESCs; assay: hESC BMP4-induced differentiation, pluripotency marker immunofluorescence; format: cell-based, human; conditions: BMP4 50 ng/ml, at 12 hours; similar trend in NANOG
Protocol: as §1
Cells were fixed for 30 min in 4% paraformaldehyde, rinsed twice with DPBS (without Ca^2+ and Mg^2+, denoted DPBS^−/−), and blocked for 30 min at room temperature. The blocking solution contained 3% donkey serum and 0.1% Triton X-100 in 1×DPBS^−/−. After blocking, the cells were incubated with primary antibodies at room temperature for 2 hours. Antibodies and concentrations are listed below. […]
as §2, with “Cell segmentation was performed using ilastik software.” left out, “code.” for “code. Nuclear intensities were normalized by DAPI to correct for intensity variation due to optics.”

[5] = tested on: Xenopus embryos; assay: Gastrulation scoring (incomplete blastopore closure) in treated or kcnh6-depleted embryos; format: in vivo, Xenopus tropicalis; conditions: blastula/gastrula embryos treated stage 8 to stage 12, 50 nM
Protocol: All injections of Xenopus embryos were performed at the one-cell stage using a fine glass needle and Picospritzer system. A kcnh6 translation blocking (kcnh6 MO, 5′-[…]-3′, SEQ ID NO:1) and a scrambled morpholino oligonucleotide were obtained from Gene Tools LLC and injected at 10 ng to deplete kcnh6 or as a control, respectively. CRISPR sgRNAs for kcnh6 targeted either exon 3 or exon 4 based on the v7.1 gene model of the X. tropicalis genome (CRex3: 5′-[…]-3′, SEQ ID NO:2 and CRex4: 5′-[…]-3′, SEQ ID NO:3). CRISPR sgRNAs for cacna1c (5′-[…]-3′, SEQ ID NO:4) and cacna1g (5′-[…]-3′, SEQ ID NO:5) were designed from the v7.1 model of the Xenopus tropicalis genome. For F0 CRISPR knockdown, embryos were injected with 1.5 ng Cas9 Protein (PNA-Bio) and 400 pg of targeting sgRNA and raised to desired stages. […] Full length human KCNH6 (NM 030779.3; cloned in pCS107), GCaMP6 (subcloned in pCSDest) and mCherry cDNAs (Addgene #34935; in pCS2+), were used to generate capped mRNAs in vitro by first linearizing with appropriate restriction enzymes and then transcribing with the mMessage machine kit (Ambion). mRNAs were injected at 3 pg (human KCNH6), 150 pg (GCaMP6) and 150 pg (mCherry) per embryo. Embryos were raised at 21° C. to allow time for sufficient expression levels at blastula/gastrula stages.
(§3) Normal embryonic medium is 1/9× modified Ringer's (MR) containing 11 mM NaCl, 0.2 mM KCl, 0.2 mM CaCl2), 0.1 mM Mg2Cl and 0.55 mM HEPES. To allow Ergtoxin to penetrate the embryos, the present study manually removed the vitelline envelope of stage 8 embryos and incubated embryos in 1/9×MR containing 50 nM Ergtoxin (Alomone STE-450) until stage 12. Embryos were then transferred back into 1/9×MR lacking Ergtoxin to develop until stage 45 in order to score organ situs. Barium chloride was applied into the medium at 20 mM and embryos were thoroughly rinsed in 1/9×MR after each incubation period for further development in Ba2+-free medium. For extracellular K^+ manipulations, the KCl concentration in 1/9×MR was modified from 0.2 mM (normal) to 20 mM (high) or 0 mM (low). The ionophore valinomycin (ACROS) and L-type VGCC blocker Nifedipine (ACROS) were diluted in DMSO as stock solutions and applied to embryos in 1/9×MR at 2 nM and 10 μM respectively. Treatments performed during gastrulation were applied from stage 8 through stage 12, and embryos were then rinsed thoroughly and returned into 1/9×MR. For rapamycin, the present study created a standard stock solution of 50 mg/ml in DMSO. The stock solution was diluted 1:2500 in the appropriate embryonic media (final 20 μg/ml). Embryos were treated at stage 7 and then fixed at stage 11 for in situ hybridization.
(§4) In experiments where embryos were evaluated for phenotypes and scored (gastrulation, left-right patterning, in situ hybridizations) the present study carried out three to five biological replicates and Fisher's exact test to evaluate statistical significance. The animal cap experiment was performed twice with a total score of four to eight animal caps per experiment. For the calcium transient analyses, data was collected from three to five embryos in each experiment in three independent experiments, and statistical analyses on GCaMP/mCherry fluorescence intensity as well as Ca^2+ transient area were performed using student's t-test. For whole cell electrophysiological recordings, three to five embryos (two cells each) were examined for their membrane potential and statistical significance was tested by student's t-test. Graphs were designed using GraphPad Prism software. Models were created with BioRender.com.

[6] = tested on: Xenopus embryos; assay: Organ situs (left-right patterning) scoring in stage 45 tadpoles; format: in vivo, Xenopus tropicalis; conditions: blastula/gastrula embryos treated stage 8 to stage 12, 50 nM
Protocol: Stage 45 Xenopus embryos were paralyzed with benzocaine or tricaine and scored with a light stereomicroscope. Cardiac looping was determined by position of the outflow tract; D-loop: rightward, L-loop: leftward; A-loop: midline. Normal intestinal looping was scored as counter-clockwise rotation of the gut, while abnormal intestinal looping was scored as completely inverse gut rotation (clockwise) or complete lack of looping (un-looped). While a completely inverted gut rotation is clearly an abnormality of LR patterning, an unlooped gut is less clear so the present study only considered an unlooped gut as abnormal situs when combined with abnormal placement (left-sided or midline) of the gall bladder. To quantify total abnormal organ situs, each tadpole was counted only once, regardless of whether multiple organs were affected.
as §3, §4

C[N+](C)(C)CCO [choline]
Vm [1]: −41±4 mV

CO[C@H]1C[C@@H]2CC[C@@H](C)[C@@](O)(O2)C(=O)C(=O)N2CCCC[C@H]2C(=O)O[C@H]([C@H](C)C[C@@H]2CC[C@@H](O)[C@H](OC)C2)CC(=O)[C@H](C)/C=C(\C)[C@@H](O)[C@@H](OC)C(=O)[C@H](C)C[C@H](C)/C=C/C=C/C=C/1C [rapamycin]
final cell numbers per well ([2]; hESCs, rapamycin 100 nM, 5 days): reduce the final cell numbers per well

Ergtoxin: a scorpion peptide that specifically acts as a pore blocker of the KCNH channel family (Alomone STE-450) (DRDSCVDKSRCAKYGYYQECQDCCKNAGHNGGTCMFFKCKCA; ends and bridges not checked; cysteine pairing not given here; UniProt Q86QT3 21-62, looked up)
effect on pluripotency markers in the presence of rapamycin ([2]; 25 nM Ergtoxin with 100 nM rapamycin): no effect
pluripotency markers OCT4 and SOX2 ([2]; hESCs grown for two days, 25 nM Ergtoxin or 1 mM Barium, immunostaining and qPCR): modest but significant elevation
OCT4, SOX2 and NANOG transcript level [3]: upregulation of these genes at the transcript level
downregulation of pluripotency markers such as SOX2 [4]: significant delay
gastrulation defects [5]: identical gastrulation and LR defects
LR defects [6]: identical gastrulation and LR defects
